According to US12605318B2, “Synergistic preservative/personal care composition containing an alkylene glycol ester” (priority 2020, dated 2026):

Columns and labels:
Test in all cases: Log reduction test of preservative agent and PGC in water matrices (drop plate), Example 3
Assay type in all cases: cell-based
[1] = system: Pluralibacter gergoviae ATCC 33028/DSM 9245; details: PGC 0 ppm; for Log reduction: contact time 5 min, water
Protocol: (§1) Bacterial and yeast strains were kept cryofrozen at −80° C.; before use, they were sub-cultured onto tryptone soya agar (Bacteria) and malt extract agar (yeast), and incubated at the appropriate temperature and time.
(§2) A test suspension was then created for each the bacteria and yeast by adding loopfuls of organism to sterile distilled water and adjusting the cell concentration to between 1×10^8 and 5×10^9 CFU/ml for bacteria, and 1×10^6 and 5×10^7 CFU/ml for yeast. This was achieved using the data from a calibration curve generated by a spectrophotometer at a wavelength of 620 nm.
(§3) For each organism tested, 1 g of each preservative agent and PGC composition sample was prepared in sterile distilled water.
(§4) Each test sample was prepared by inoculating 1 ml aliquot of the test organism suspension into 1 ml of test sample.
(§5) The combination was then mixed. Each test mixture was sampled and tested at a defined time point after inoculation. The contact times used in this study are detailed in Table 7 above.
(§6) Upon reaching the specified contact time the test mixture was deactivated by adding a 100 μl of test mixture into 900 μl of neutralizing broth and the whole solution was mixed. The solution was left for 5 minutes to ensure the action of the preservative agent was effectively neutralized. Subsequent dilutions were prepared by adding 100 μl into 900 μl of neutralizing broth.
(§7) For each dilution prepare drop plates using appropriate agar and incubate at the appropriate temperature and time as in Table 5.
(§8) Used the drop plate technique.
(§9) Prepare agar plates by drying for 45 min-1 hour in a laminar flow at 20-25° C. Aliquot 0.025 ml drops onto the agar surface for each sample dilution. Allow drops to dry and incubate appropriately.
(§10) Plates were plates were prepared in sextuplicate for each for each sample dilution.
(§11) [formula] • Where • d1 is sum of viable count values from 6 drops • This was then multiplied by 40 to establish cfu/ml; Enumeration and Calculation of T (Test Sample)
(§12) [formula] • Where • d1 is sum of viable count values from 6 drops • This was then multiplied by 40 to establish cfu/ml;
(§13) To calculate the final log reduction the following calculation was used: Log 10 N−log 10 T=log reduction

[2] = system: Candida albicans ATCC 10231/DSM 1386; details: PGC 0 ppm; for Log reduction: contact time 5 min, water
Protocol: as §1, §2, §3, §4, §5, §6, §7, §8, §9, §10, §11, §12, §13

[3] = system: Aspergillus brasiliensis ATCC 16404/NCPF 2275; details: PGC 0 ppm
Protocol: A test suspension was then created in tryptone buffered saline and adjusting the cell concentration to between 1×10^5 and 5×10^6 CFU/ml.
as §3, §4, §5, §6, §7, §8, §9, §10, §11, §12, §13

[4] = Didecyl dimethyl ammonium chloride 10 ppm
[5] = Didecyl dimethyl ammonium chloride 20 ppm
[6] = Didecyl dimethyl ammonium chloride 30 ppm
[7] = Didecyl dimethyl ammonium chloride 40 ppm
[8] = Didecyl dimethyl ammonium chloride 50 ppm

O=c1[nH]sc2ccccc12 [Benzisothiazolinone]
log reduction ([1]; Benzisothiazolinone 12.5 ppm): 0.00 | log reduction ([1]; Benzisothiazolinone 25 ppm): 0.00 | log reduction ([1]; Benzisothiazolinone 50 ppm): 0.00 | log reduction ([1]; Benzisothiazolinone 100 ppm): 0.03 | log reduction ([1]; Benzisothiazolinone 200 ppm): 1.21 | log reduction ([2]; Benzisothiazolinone 50 ppm): 0.00 | log reduction ([2]; Benzisothiazolinone 100 ppm): 0.00 | log reduction ([2]; Benzisothiazolinone 250 ppm): 0.00 | log reduction ([2]; Benzisothiazolinone 500 ppm): 0.00 | log reduction ([2]; Benzisothiazolinone 1000 ppm): 0.00 | log reduction ([3]; Benzisothiazolinone 50 ppm): −0.03 | log reduction ([3]; Benzisothiazolinone 100 ppm): 0.17 | log reduction ([3]; Benzisothiazolinone 250 ppm): 0.14 | log reduction ([3]; Benzisothiazolinone 500 ppm): 0.24 | log reduction ([3]; Benzisothiazolinone 1000 ppm): 0.28

OCc1ccccc1 [Benzyl Alcohol]
log reduction ([1]; Benzyl Alcohol 500 ppm): 0.00 | log reduction ([1]; Benzyl Alcohol 1000 ppm): 1.24 | log reduction ([1]; Benzyl Alcohol 2000 ppm): 1.57 | log reduction ([1]; Benzyl Alcohol 3000 ppm): 2.04 | log reduction ([1]; Benzyl Alcohol 4000 ppm): 4.04

CCCCCCCCCCCCN(CCCN)CCCN [Bis (3-aminopropyl) dodecylamine]
Log reduction ([1]; Bis (3-aminopropyl) dodecylamine 5 ppm): 0.01 | Log reduction ([1]; Bis (3-aminopropyl) dodecylamine 12.5 ppm): 0.00 | Log reduction ([1]; Bis (3-aminopropyl) dodecylamine 25 ppm): 2.00 | Log reduction ([1]; Bis (3-aminopropyl) dodecylamine 50 ppm): >5.52 | Log reduction ([1]; Bis (3-aminopropyl) dodecylamine 100 ppm): >5.52 | Log reduction ([2]; Bis (3-aminopropyl) dodecylamine 10 ppm): 3.14 | Log reduction ([2]; Bis (3-aminopropyl) dodecylamine 20 ppm): >4.44 | Log reduction ([2]; Bis (3-aminopropyl) dodecylamine 40 ppm): >4.44 | Log reduction ([2]; Bis (3-aminopropyl) dodecylamine 60 ppm): >4.44 | Log reduction ([2]; Bis (3-aminopropyl) dodecylamine 80 ppm): >4.44

CC(=O)C1C(=O)C=C(C)OC1=O (stereo not drawn) [Dehydroacetic acid]
log reduction ([2]; Dehydroacetic acid 1000 ppm): 0.00 | log reduction ([2]; Dehydroacetic acid 2000 ppm): 0.00 | log reduction ([2]; Dehydroacetic acid 3000 ppm): 0.00 | log reduction ([2]; Dehydroacetic acid 4000 ppm): 0.23 | log reduction ([2]; Dehydroacetic acid 5000 ppm): 0.52

CCCCCCCCCC[N+](C)(C)CCCCCCCCCC.[Cl-] [Didecyl dimethyl ammonium chloride]
Log reduction [2, 4]: 1.07 | Log reduction [2, 5]: 1.01 | Log reduction [2, 6]: 1.33 | Log reduction [2, 7]: 2.43 | Log reduction [2, 8]: >4.52 | log reduction [3, 4]: 1.01 | log reduction [3, 5]: 2.44 | log reduction [3, 6]: >4.05 | log reduction [3, 7]: >4.05 | log reduction [3, 8]: >4.05

CC(O)C(=O)O (stereo not drawn) [Lactic Acid]
log reduction ([1]; Lactic Acid 200 ppm): 0.00 | log reduction ([1]; Lactic Acid 500 ppm): 0.00 | log reduction ([1]; Lactic Acid 1000 ppm): 2.08 | log reduction ([1]; Lactic Acid 1500 ppm): 3.67 | log reduction ([1]; Lactic Acid 2000 ppm): 4.49 | log reduction ([3]; Lactic Acid 100 ppm): 0.06 | log reduction ([3]; Lactic Acid 250 ppm): 0.12 | log reduction ([3]; Lactic Acid 500 ppm): 0.05 | log reduction ([3]; Lactic Acid 1000 ppm): 0.08 | log reduction ([3]; Lactic Acid 2500 ppm): 0.15

O=C([O-])c1ccccc1.[Na+] [Sodium Benzoate]
log reduction ([1]; Sodium Benzoate 2000 ppm): 0.00 | log reduction ([1]; Sodium Benzoate 5000 ppm): 0.00 | log reduction ([1]; Sodium Benzoate 10000 ppm): 0.00 | log reduction ([1]; Sodium Benzoate 20000 ppm): 0.46 | log reduction ([1]; Sodium Benzoate 30000 ppm): 1.40 | log reduction ([2]; Sodium Benzoate 10000 ppm): 0.00 | log reduction ([2]; Sodium Benzoate 20000 ppm): 0.00 | log reduction ([2]; Sodium Benzoate 30000 ppm): 0.00 | log reduction ([2]; Sodium Benzoate 40000 ppm): 0.00 | log reduction ([2]; Sodium Benzoate 50000 ppm): 2.06 | log reduction ([3]; Sodium Benzoate 10000 ppm): 0.17 | log reduction ([3]; Sodium Benzoate 20000 ppm): 0.50 | log reduction ([3]; Sodium Benzoate 30000 ppm): 0.70 | log reduction ([3]; Sodium Benzoate 40000 ppm): 1.32 | log reduction ([3]; Sodium Benzoate 50000 ppm): 1.34

C/C=C/C=C/C(=O)O [Sorbic Acid]
log reduction ([1]; Sorbic acid 100 ppm): 0.00 | log reduction ([1]; Sorbic acid 200 ppm): 0.00 | log reduction ([1]; Sorbic acid 300 ppm): 0.00 | log reduction ([1]; Sorbic acid 400 ppm): 0.58 | log reduction ([1]; Sorbic acid 500 ppm): 1.38
